ChEMBL document CHEMBL1147584, “Antimalarial activity of phenazines from lapachol, beta-lapachone and its derivatives against Plasmodium falciparum in vitro and Plasmodium berghei in vivo” (Bioorg Med Chem Lett, 2004)

These compounds were tested on Plasmodium berghei (assay: Inhibition of Plasmodium berghei infection in mice (Mus musculus) at 15 mg/kg subcutaneous dose (experiment 3)). Settings: sc.
Type: functional

Compound	inhibition in vivo at 15 mg/kg [%]
CCN(CC)CCCC(C)Nc1ccnc2cc(Cl)ccc12 (configuration not stated) [CHLOROQUINE]	99

The compounds below were run on Plasmodium falciparum (assay: In vitro antimalarial activity for Plasmodium falciparum D6). Settings: not given.
Type: functional, organism-based

Compound	IC50 [µM]
C=CCC1Cc2c(c3ccccc3c3nc4ccccc4nc23)OC1(C)C (configuration not stated)	> 20
CC1(C)Oc2c(c3nc4ccccc4nc3c3ccccc23)CC1S(=O)(=O)O (configuration not stated)	2.43
c1ccc2c(c1)ccc1nc3ccccc3nc12 [BENZO[A]PHENAZINE]	> 20

Further lines, results first:

IC50 [µM]	Compound
> 20	CC1(C)CCc2c(c3ccccc3c3nc4ccccc4nc23)O1
4.07	CC1(C)Oc2c(c3nc4ccccc4nc3c3ccccc23)CC1Br (configuration not stated)
4.26	CC1(C)Oc2c(c3nc4ccccc4nc3c3ccccc23)CC1I (configuration not stated)
3.72	CC(C)=CCc1c(O)c2ccccc2c2nc3ccccc3nc12

The compounds below were run on Plasmodium berghei (assay: Inhibition of Plasmodium berghei infection in mice (Mus musculus) at 100 mg/kg subcutaneous dose (expt 1)). Settings: sc.
Type: functional

Compound	inhibition in vivo at 100 mg/kg [%]
CC1(C)Oc2c(c3nc4ccccc4nc3c3ccccc23)CC1Br (configuration not stated)	0
CC1(C)Oc2c(c3nc4ccccc4nc3c3ccccc23)CC1S(=O)(=O)O (configuration not stated)	34

The compounds below were run on Plasmodium falciparum (assay: In vitro antimalarial activity for Plasmodium falciparum W2). Settings: not given.
Type: functional, organism-based

Compound	IC50 [µM]
C=CCC1Cc2c(c3ccccc3c3nc4ccccc4nc23)OC1(C)C (configuration not stated)	> 20
CC1(C)Oc2c(c3nc4ccccc4nc3c3ccccc23)CC1S(=O)(=O)O (configuration not stated)	1.67
c1ccc2c(c1)ccc1nc3ccccc3nc12 [BENZO[A]PHENAZINE]	> 20

Second part, the compound after the results:

IC50 [µM]	Compound
> 20	CC1(C)CCc2c(c3ccccc3c3nc4ccccc4nc23)O1
3.04	CC1(C)Oc2c(c3nc4ccccc4nc3c3ccccc23)CC1Br (configuration not stated)
3.22	CC1(C)Oc2c(c3nc4ccccc4nc3c3ccccc23)CC1I (configuration not stated)
3.54	CC(C)=CCc1c(O)c2ccccc2c2nc3ccccc3nc12

Each compound was assayed on Plasmodium berghei (assay: Inhibition of Plasmodium berghei infection in mice (Mus musculus) at 200 mg/kg peroral dose (expt 1)). Settings: route oral.
Type: functional

Compound	inhibition in vivo at 200 mg/kg [%]
CC1(C)Oc2c(c3nc4ccccc4nc3c3ccccc23)CC1Br (configuration not stated)	11
CC1(C)Oc2c(c3nc4ccccc4nc3c3ccccc23)CC1S(=O)(=O)O (configuration not stated)	33
CC(C)=CCC1=C(O)C(=O)c2ccccc2C1=O [LAPACHOL]	0
CC1(C)CCC2=C(O1)c1ccccc1C(=O)C2=O [LAPACHONE]	28

What follows are compounds tested on Plasmodium falciparum (assay: In vitro antimalarial activity for Plasmodium falciparum BHz26/86). Settings: not given.
Type: functional, organism-based

Compound	IC50 [µM]
C=CCC1Cc2c(c3ccccc3c3nc4ccccc4nc23)OC1(C)C (configuration not stated)	> 20
CC1(C)Oc2c(c3nc4ccccc4nc3c3ccccc23)CC1S(=O)(=O)O (configuration not stated)	1.75
c1ccc2c(c1)ccc1nc3ccccc3nc12 [BENZO[A]PHENAZINE]	> 20

Continued, values first:

IC50 [µM]	Compound
> 20	CC1(C)CCc2c(c3ccccc3c3nc4ccccc4nc23)O1
1.9	CC1(C)Oc2c(c3nc4ccccc4nc3c3ccccc23)CC1Br (configuration not stated)
2.3	CC1(C)Oc2c(c3nc4ccccc4nc3c3ccccc23)CC1I (configuration not stated)
3.14	CC(C)=CCc1c(O)c2ccccc2c2nc3ccccc3nc12

What follows are compounds tested on Plasmodium berghei (assay: Inhibition of Plasmodium berghei in mice (Mus musculus) after 15 mg/kg subcutaneous dose (experiment 1)). Settings: sc.
Type: functional

Compound	inhibition in vivo at 15 mg/kg [%]
CCN(CC)CCCC(C)Nc1ccnc2cc(Cl)ccc12 (configuration not stated) [CHLOROQUINE]	99

These compounds were tested on Plasmodium berghei (assay: Inhibition of Plasmodium berghei infection in mice (Mus musculus) at 200 mg/kg peroral dose (expt 2)). Settings: route oral.
Type: functional

Compound	inhibition in vivo at 200 mg/kg [%]
CC1(C)Oc2c(c3nc4ccccc4nc3c3ccccc23)CC1Br (configuration not stated)	10
CC1(C)Oc2c(c3nc4ccccc4nc3c3ccccc23)CC1S(=O)(=O)O (configuration not stated)	36
CC(C)=CCC1=C(O)C(=O)c2ccccc2C1=O [LAPACHOL]	0
CC1(C)CCC2=C(O1)c1ccccc1C(=O)C2=O [LAPACHONE]	34

These compounds were tested on Plasmodium berghei (assay: Inhibition of Plasmodium berghei infection in mice (Mus musculus) at 100 mg/kg subcutaneous dose (expt 3)). Settings: sc.
Type: functional

Compound	inhibition in vivo at 100 mg/kg [%]
CC1(C)Oc2c(c3nc4ccccc4nc3c3ccccc23)CC1Br (configuration not stated)	0

What follows are compounds tested on Plasmodium berghei (assay: Inhibition of Plasmodium berghei infection in mice (Mus musculus) at 200 mg/kg subcutaneous dose (expt 3)). Settings: sc.
Type: functional

Compound	inhibition in vivo at 200 mg/kg [%]
CC1(C)Oc2c(c3nc4ccccc4nc3c3ccccc23)CC1Br (configuration not stated)	0
CC1(C)Oc2c(c3nc4ccccc4nc3c3ccccc23)CC1S(=O)(=O)O (configuration not stated)	98

These compounds were tested on Plasmodium berghei (assay: Inhibition of Plasmodium berghei infection in mice (Mus musculus) at 25 mg/kg peroral dose (experiment 1)). Settings: route oral.
Type: functional

Compound	inhibition in vivo at 25 mg/kg [%]
CCN(CC)CCCC(C)Nc1ccnc2cc(Cl)ccc12 (configuration not stated) [CHLOROQUINE]	99

Each compound was assayed on Plasmodium berghei (assay: Inhibition of Plasmodium berghei infection in mice (Mus musculus) at 200 mg/kg subcutaneous dose (expt 2)). Settings: sc.
Type: functional

Compound	inhibition in vivo at 200 mg/kg [%]
CC1(C)Oc2c(c3nc4ccccc4nc3c3ccccc23)CC1Br (configuration not stated)	0
CC1(C)Oc2c(c3nc4ccccc4nc3c3ccccc23)CC1S(=O)(=O)O (configuration not stated)	40

Each compound was assayed on Plasmodium berghei (assay: Inhibition of Plasmodium berghei infection in mice (Mus musculus) at 100 mg/kg subcutaneous dose (experiment 2)). Settings: sc.
Type: functional

Compound	inhibition in vivo at 100 mg/kg [%]
CC1(C)Oc2c(c3nc4ccccc4nc3c3ccccc23)CC1Br (configuration not stated)	0
CC1(C)Oc2c(c3nc4ccccc4nc3c3ccccc23)CC1S(=O)(=O)O (configuration not stated)	31

What follows are compounds tested on Plasmodium berghei (assay: Inhibition of Plasmodium berghei infection in mice (Mus musculus) at 15 mg/kg subcutaneous dose (experiment 2)). Settings: sc.
Type: functional

Compound	inhibition in vivo at 15 mg/kg [%]
CCN(CC)CCCC(C)Nc1ccnc2cc(Cl)ccc12 (configuration not stated) [CHLOROQUINE]	99

Each compound was assayed on Plasmodium berghei (assay: Inhibition of Plasmodium berghei infection in mice (Mus musculus) at 25 mg/kg peroral dose (expt 2)). Settings: route oral.
Type: functional

Compound	inhibition in vivo at 25 mg/kg [%]
CCN(CC)CCCC(C)Nc1ccnc2cc(Cl)ccc12 (configuration not stated) [CHLOROQUINE]	98

These compounds were tested on Plasmodium berghei (assay: Inhibition of Plasmodium berghei infection in mice (Mus musculus) at 200 mg/kg subcutaneous dose (experiment 1)). Settings: sc.
Type: functional

Compound	inhibition in vivo at 200 mg/kg [%]
CC1(C)Oc2c(c3nc4ccccc4nc3c3ccccc23)CC1Br (configuration not stated)	0
CC1(C)Oc2c(c3nc4ccccc4nc3c3ccccc23)CC1S(=O)(=O)O (configuration not stated)	50

The compounds below were run on Plasmodium falciparum (assay: In vitro antimalarial activity for Plasmodium falciparum HB3). Settings: not given.
Type: functional, organism-based

Compound	IC50 [µM]
C=CCC1Cc2c(c3ccccc3c3nc4ccccc4nc23)OC1(C)C (configuration not stated)	> 20
CC1(C)Oc2c(c3nc4ccccc4nc3c3ccccc23)CC1S(=O)(=O)O (configuration not stated)	6.14
c1ccc2c(c1)ccc1nc3ccccc3nc12 [BENZO[A]PHENAZINE]	> 20

Now from value to compound:

IC50 [µM]	Compound
> 20	CC1(C)CCc2c(c3ccccc3c3nc4ccccc4nc23)O1
8.75	CC1(C)Oc2c(c3nc4ccccc4nc3c3ccccc23)CC1Br (configuration not stated)
6.65	CC1(C)Oc2c(c3nc4ccccc4nc3c3ccccc23)CC1I (configuration not stated)
9.44	CC(C)=CCc1c(O)c2ccccc2c2nc3ccccc3nc12
